US5523314A, “Compounds useful as hypoglycemic agents and for treating Alzheimer's disease” (priority 1994, dated 1996)
Structures can show the parent of a compound that is named as a salt. Where two headings read alike, the source gives them in different places.

Key:
blood glucose level [1] = test: Hypoglycemic activity in obese diabetic mice (Table 1); type: in vivo, male viable yellow obese-diabetic mice; settings: for response vs control in vivo at 50 mg/kg / response vs control in vivo at 5 mg/kg / response vs control in vivo at 10 mg/kg / response vs control in vivo at 25 mg/kg: Mus musculus, ip; for response vs control in vivo at 50 mg/kg / response vs control in vivo at 25 mg/kg: intraperitoneal
Experimental: The hypoglycemic activity of the compounds of the present invention was determined by testing the efficacy of the compounds in vivo in male viable yellow obese-diabetic mice. The test procedure is described in detail below.
Test formulations were prepared by dissolving the test compound in a saline solution containing 2% Emulphor (a polyoxyethylated vegetable oil surfactant from GAP Corp.) to provide the dose level desired. Each test formulation was administered to six viable yellow obese-diabetic mice intraperitoneally at the beginning of the experiment. Blood glucose levels were determined immediately before the first dose and at 2 and 4 hours thereafter using glucose oxidase. A mean was taken of the 6 values obtained before the first dose and at the 2 and 4 hour intervals. In Table 1, Column 1 provides the example number of the test compound, Column 2 provides the dose level of compound tested, and Columns 3 and 4 provide a measurement of the test animal's blood glucose level 2 and 4 hours after test compound administration, respectively, as a percentage of the test animal' s pre-administration blood glucose level.

Human liver cathepsin D = biological target: T1, Human liver cathepsin D (Homo sapiens, UniProt P07339); test: Cathepsin D inhibition, fluorometric assay (Tables 5 and 6); type: biochemical; settings: for inhibition at 10 µg/mL (stock): Compound Stock Concentration 10.0 μg/ml
T1 construct: purchased Athens Research and Technology, Athens, Ga; host or cells: human liver
Experimental: Human liver cathepsin D (Athens Research and Technology, Athens, Ga.) was diluted in assay buffer, 200 mM NaOAc, pH 4.5, 150 mM NaCl to 500 ng/mL and then 100 μL of this cathepsin D solution was added to each well of a 96 well plate with the exception of control wells which received just 100 μL of assay buffer. […] Blank and enzyme control wells each received 5 μL of the DMSO vehicle.
After incubation at 37° C. for 30 minutes, cathepsin D activity was terminated by the addition of 100 μL per well of 400 mU/mL microsomal leucine aminopeptidase (EC 3.4.11.2, Sigma, St. Louis, Mo.) in 1M Tris-HCl, pH 8.0.
Following a two hour incubation at 37° C., to allow the aminopeptidase to release the fluorophore, 7-amido-4-methylcoumarin (AMC) from the products of cathepsin D cleavage, the plates were again analyzed in the fluorometer. In order to check for potential false positives, i.e., inhibitors of microsomal leucine aminopeptidase, residual aminopeptidase activity was monitored directly in each well by the addition of 20 μL/well of 2.5 mM Leu-pNA (Bachem Biosciences, Philadelphia, Pa.) in 10% DMSO.

blood glucose level [2] = test: Hypoglycemic activity in normal fed rats (Table 2); type: in vivo, male Sprague Dawley rats; settings: Rattus norvegicus
Experimental: The procedure used in this test system is described below.
The desired dose level of each test formulation was administered to four rats by oral […] at the beginning of the experiment. Blood glucose levels were determined immediately before the first dose and at 3 and 5 hours thereafter by an enzymatic procedure employing glucose oxidase and peroxidase coupled with a chromogenic oxygen acceptor. A mean was taken of the 4 values obtained before the first dose and at the 3 and 5 hour intervals.

[3] = 2 h, 2 hrs, read-out: Percent of Initial Blood Glucose Level After 2 hrs.
[4] = 4 h, 4 hrs, read-out: Percent of Initial Blood Glucose Level After 4 hrs.
[5] = 200 mg/kg, oral, 3 hrs, read-out: Percent of Initial Blood Glucose Level After 3 hrs.
[6] = 200 mg/kg, oral, 5 hrs, read-out: Percent of Initial Blood Glucose Level After 5 hrs.

T1 sequence (P07339 169-412 limits assumed): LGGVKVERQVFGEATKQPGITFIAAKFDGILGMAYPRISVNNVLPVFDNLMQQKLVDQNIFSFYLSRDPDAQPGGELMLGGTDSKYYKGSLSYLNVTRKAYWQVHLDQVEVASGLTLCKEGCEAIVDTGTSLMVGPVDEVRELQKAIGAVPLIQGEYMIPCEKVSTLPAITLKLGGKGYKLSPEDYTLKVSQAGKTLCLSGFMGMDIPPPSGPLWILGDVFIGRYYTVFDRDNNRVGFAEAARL
T1 sequence (P07339 65-161 limits assumed): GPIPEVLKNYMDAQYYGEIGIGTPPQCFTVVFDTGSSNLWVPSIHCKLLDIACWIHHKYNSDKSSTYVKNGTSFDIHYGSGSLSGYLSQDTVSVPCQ

Compound | response vs control in vivo at 50 mg/kg (blood glucose level [1]; [3]) | response vs control in vivo at 50 mg/kg (blood glucose level [1]; [4]) | response vs control in vivo at 200 mg/kg (blood glucose level [2]; [5]) | response vs control in vivo at 200 mg/kg (blood glucose level [2]; [6]) | also measured
O=C1NC(=S)SC1=Cc1ccc(O)cc1 [Example 8, 5-[(4-hydroxyphenyl)methylene]-2-thioxo-4-thiazolidinone] | 94 ± 4% | 84 ± 6% |  |  | inhibition at 10 µg/mL (stock) (Human liver cathepsin D): 64%
CCCOc1cc(C=C2SC(=S)NC2=O)ccc1OCC [Example 50, 5-[(3-propoxy-4-ethoxyphenyl)methylene]-2-thioxo-4-thiazolidinone] | 75 ± 5% | 69 ± 5% |  |  | ability to lower blood glucose levels in mammals (blood glucose level [1]; compared to structurally similar compounds known in the art, in words): surprising ability to lower blood glucose levels in mammals; inhibition at 4.15 µg/mL (stock) (Human liver cathepsin D; Compound Stock Concentration 4.15 μg/ml): 40%
COc1cc(C=C2SC(=S)NC2=O)cc(OC)c1OC [Example 17, 5-[(3,4,5-trimethoxyphenyl)methylene]-2-thioxo-4-thiazolidinone] | 88 ± 8% | 89 ± 10% | 78% | 68% | 
CCCCCOc1ccc(C=C2SCNC2=O)cc1OC [Example 66, 5-[(3-methoxy-4-pentoxyphenyl)methylene]-4-thiazolidinone] |  |  | 100% | 86% | 
CCCCCOc1ccc(C=C2SC(=S)NC2=O)cc1OC [Example 57, 5-[(3-methoxy-4-pentoxyphenyl)methylene]-2-thioxo-4-thiazolidinone sodium salt] |  |  |  |  | response vs control in vivo at 5 mg/kg (blood glucose level [1]; 2 h, read-out: Percent of Initial Blood Glucose Level After 2 hrs., 5 mg/kg, intraperitoneal, 2 hrs): 82 ± 6%; response vs control in vivo at 10 mg/kg (blood glucose level [1]; 2 h, read-out: Percent of Initial Blood Glucose Level After 2 hrs., 10 mg/kg, intraperitoneal, 2 hrs): 95 ± 3%; response vs control in vivo at 5 mg/kg (blood glucose level [1]; 4 h, read-out: Percent of Initial Blood Glucose Level After 4 hrs., 5 mg/kg, intraperitoneal, 4 hrs): 68 ± 5%; response vs control in vivo at 10 mg/kg (blood glucose level [1]; 4 h, read-out: Percent of Initial Blood Glucose Level After 4 hrs., 10 mg/kg, intraperitoneal, 4 hrs): 87 ± 6%; response vs control in vivo at 200 mg/kg (blood glucose level [2]; po, 3 h, read-out: Percent of Initial Blood Glucose Level After 3 hrs.): 84%; response vs control in vivo at 200 mg/kg (blood glucose level [2]; po, 5 h, read-out: Percent of Initial Blood Glucose Level After 5 hrs.): 73%
CCCCCOc1ccc(CC2SCNC2=O)cc1OC (stereo not shown) [Example 67, 5-[(3-methoxy-4-pentoxyphenyl)methyl]-4-thiazolidinone] |  |  | 92% | 88% | 
CCOc1ccc(C=C2SC(=S)NC2=O)cc1OC [Example 48, 5-[(3-methoxy-4-ethoxyphenyl)methylene]-2-thioxo-4-thiazolidinone] | 70 ± 3% | 65 ± 3% |  |  | response vs control in vivo at 25 mg/kg (blood glucose level [1]; [3]): 87 ± 4%; response vs control in vivo at 25 mg/kg (blood glucose level [1]; [4]): 81 ± 5%; response vs control in vivo at 167 mg/kg (blood glucose level [2]; oral, 3 hrs, read-out: Percent of Initial Blood Glucose Level After 3 hrs.): 87%; response vs control in vivo at 167 mg/kg (blood glucose level [2]; oral, 5 hrs, read-out: Percent of Initial Blood Glucose Level After 5 hrs.): 81%
O=C1NC(=S)SC1=C(c1ccccc1)c1ccccc1 [Example 4, 5-(diphenylmethylene)-2-thioxo-4-thiazolidinone] | 91 ± 4% | 72 ± 7% |  |  | inhibition at 10 µg/mL (stock) (Human liver cathepsin D): 50%
Cc1cc(C=C2SC(=S)NC2=O)cc(C)c1O [Example 62, 5-[(3,5-dimethyl-4-hydroxyphenyl)methylene]-2-thioxo-4-thiazolidinone] |  |  | 78% | 53% | 
O=C1NC(=S)SC1=Cc1ccncc1 [Example 16, 5-[(4-pyridyl)methylene]-2-thioxo-4-thiazolidinone] | 94 ± 8% | 96 ± 9% | 92% | 79% | 
CCOc1cc(C=C2SC(=S)NC2=O)ccc1OC [Example 58, 5-[(3-ethoxy-4-methoxyphenyl)methylene]-2-thioxo-4-thiazolidinone] | 67 ± 2% | 75 ± 5% | 100% | 100% | 
